Results published in patent US20220323594A1, “LIPIDATED CATIONIC PEPTIDE-PEG COMPOSITIONS FOR NUCLEIC ACID DELIVERY” (NUTCRACKER THERAPEUTICS, INC., priority 2019, published 2022).

Legend:
[1] = MTT viability assay after treatment with Fluc mRNA/amino lipidated peptoid formulations; format: cell-based; details: human, HeLa cells
Description: Cellular viability was measured following treatment with Fluc mRNA/amino lipidated peptoid formulations by a traditional MTT viability assay. […] In this assay, cells were first treated with peptoid formulations at a final mRNA concentration of 100 ng/well for 8 hours. Cells were then left to grow for 48 hours, after which time they were exposed to 1.5 mg/mL 3-(4,5-dimethylthiazol-2-yl)-2,5-diphenyltetrazolium bromide (MTT) for 2 hours, then lysed using a solubilizing solution of 10% Triton-X 100 in acidic isopropanol (0.1N HCl). The signal corresponding to reduced formazan was normalized to untreated cells to provide a relative viability of each treated condition. […] In general, nearly all conditions maintained at least 80% viability with the only exceptions being formulations of compound 5, 34, and 35.

[2] = mRNA encapsulation by fluorescence of Qubit RNA HS dye before and after lysis with Triton X-100; format: physicochemical; details: percentage of mRNA encapsulation; Fluc mRNA/peptoid formulation, 5:1 mass ratio
Description: The exemplary amino lipidated cationic peptoids described in Example 2 were combined with firefly luciferase (Fluc) mRNA to form nanoparticle compositions to be evaluated for therapeutic and/or prophylactic purposes in vitro or in vivo. The formulations were prepared according to the protocol of Example 3 and mixed by simple pipetting. The mRNA/peptoid formulation at a 5:1 mass ratio of peptoid:cargo were evaluated by dynamic light scattering (DLS) in order to determine the volume average particle size/diameter (nm) of the mRNA/peptoid complex and the size polydispersity index (PDI) within the formulation. The percentage of mRNA encapsulation for each formulation of the exemplary compounds were determined by fluorescence of the Qubit RNA HS (Invitrogen) dye before and after lysis of particles by Triton X-100.

HeLa cells [3] = experiment: In vitro expression of firefly luciferase (Fluc) after treatment with Fluc mRNA/amino lipidated peptoid formulations, no PEG or 2% DMG-PEG2000; format: cell-based
Description: The efficacy of mRNA/amino lipidated peptoid formulations was evaluated in vitro based on their ability to deliver the firefly luciferase (Fluc) reporter gene to cultured cells. Amino lipidated peptoids were combined with Fluc mRNA at a 5:1 w/w ratio, and the resulting particles were added to cultured HeLa cells at a dose of 100 ng/well (in 100 μL total volume). The resulting luciferase expression (RLU) was measured by a luminescence plate reader after 6 hours and 24 hours of treatment. […] In addition to evaluating nanoparticle complexes formed between mRNA cargos and amino lipidated peptoids alone, multicomponent formulations containing a small amount of PEG-lipid DMG-PEG2000 were also tested for in vitro Fluc mRNA delivery. In these formulations, DMG-PEG2000 was pre-mixed with candidate peptoid at an overall 2% incorporation (w/w), while maintaining the same 5:1 mass ratio of peptoid:mRNA used previously.

HeLa cells [4] = experiment: In vitro Fluc expression with variable peptoid:mRNA mass ratio, 2% DMG-PEG2000; format: cell-based; details: 24 h; for Observed Luciferase Expression (RLU) for Given Formulation Mass Ratio 2:1: 2% (w/w) DMG-PEG2000, peptoid:mRNA 2:1; for Observed Luciferase Expression (RLU) for Given Formulation Mass Ratio 3.5:1: 2% (w/w) DMG-PEG2000, peptoid:mRNA 3.5:1; for Observed Luciferase Expression (RLU) for Given Formulation Mass Ratio 5:1: 2% (w/w) DMG-PEG2000, peptoid:mRNA 5:1; for Observed Luciferase Expression (RLU) for Given Formulation Mass Ratio 7.5:1: 2% (w/w) DMG-PEG2000, peptoid:mRNA 7.5:1
Description: The charge ratio dependence of amino lipidated peptoid delivery vehicles was evaluated by formulating particles between Fluc mRNA and delivery vehicles at varying mass ratios. Formulations were varied between 2:1 and 7.5:1 peptoid:mRNA (w/w) ratios (2:1, 3.5:1, 5:1 and 7.5:1). In addition, the role of DMG-PEG2000 was also explored with the mass ratios, either by excluding DMG-PEG2000 or incorporating DMG-PEG2000 at 2% (w/w) relative to amino lipidated peptoid. Fluc expression from these formulations was measured in HeLa cells following treatment for 24 hours. […] FIGS. 6B and 6C show plots of the average bioluminescence (RLU) for HeLa cells treated with the formulations of exemplary amino lipidated cationic peptoid compounds 1-36, all formulated with 2% w/w DMG-PEG2000.

[5] = no PEG, peptoid:Fluc mRNA 5:1 w/w, 100 ng/well, 6 h of treatment
[6] = no PEG, peptoid:Fluc mRNA 5:1 w/w, 100 ng/well, 24 h of treatment
[7] = with 2% (w/w) DMG-PEG2000, peptoid:mRNA 5:1, 6 h after treatment
[8] = with 2% (w/w) DMG-PEG2000, peptoid:mRNA 5:1, 24 h after treatment

Work on `CCCCCCCCCCN(CC(=O)N(CC(=O)N(CCCCCCCCCC)CC(=O)N(CC(N)=O)CC(CC)CCCC)CC(CC)CCCC)C(=O)CN(CCc1ccccc1)C(=O)CN(CCc1ccccc1)C(=O)CN(CCN)C(=O)CN(CCc1ccccc1)C(=O)CN(CCc1ccccc1)C(=O)CN(CCN)C(=O)CN(CCc1ccccc1)C(=O)CN(CCc1ccccc1)C(=O)CNCCN` (stereo not shown) [Compound 24] yielded a viability at 8 h, 500 ng/well ([1]; Relative Viability (%) 2% PEG) of 112% and a viability at 8 h, 500 ng/well ([1]; Relative Viability (%) No PEG) of 92%.

With `CCCCCCCCCCN(CC(N)=O)C(=O)CN(CCCCCCCCCC)C(=O)CN(CCCCCCCCCC)C(=O)CN(CCCCCCCCCC)C(=O)CN(CCc1ccccc1)C(=O)CN(CCc1ccccc1)C(=O)CN(CCNC)C(=O)CN(CCc1ccccc1)C(=O)CN(CCc1ccccc1)C(=O)CN(CCNC)C(=O)CN(CCc1ccccc1)C(=O)CN(CCc1ccccc1)C(=O)CN(CCNC)C(=O)CN(CCc1ccccc1)C(=O)CN(CCc1ccccc1)C(=O)CNCCNC` [Compound 26] the “% Encapsulation” value [2] was 35.7%, the “Luciferase Expression (RLU) 6 h” value (HeLa cells [3]; [5]) was 5.00E+00 RLU and the “Luciferase Expression (RLU) 24 h” value (HeLa cells [3]; [6]) was 1.07E+01 RLU. For the same compound, the “Luciferase Expression (RLU) 6 h” value (HeLa cells [3]; [7]) was 5.85E+02 RLU, the “Luciferase Expression (RLU) 24 h” value (HeLa cells [3]; [8]) was 6.45E+02 RLU and the “Observed Luciferase Expression (RLU) for Given Formulation Mass Ratio 2:1” value (HeLa cells [4]) was 4.91E+02 RLU. The “Observed Luciferase Expression (RLU) for Given Formulation Mass Ratio 3.5:1” value (HeLa cells [4]) was 3.93E+03 RLU, the “Observed Luciferase Expression (RLU) for Given Formulation Mass Ratio 5:1” value (HeLa cells [4]) was 6.06E+03 RLU and the “Observed Luciferase Expression (RLU) for Given Formulation Mass Ratio 7.5:1” value (HeLa cells [4]) was 3.19E+03 RLU. It also gave a viability at 8 h, 500 ng/well ([1]; Relative Viability (%) 2% PEG) of 91.9% and a viability at 8 h, 500 ng/well ([1]; Relative Viability (%) No PEG) of 98.8%.

`CCCCCCCCCCN(CC(N)=O)C(=O)CN(CCCCCCCCCC)C(=O)CN(CCCCCCCCCC)C(=O)CN(CCCCCCCCCC)C(=O)CN(CCCCCCCCCC)C(=O)CN(CCc1ccccc1)C(=O)CN(CCc1ccccc1)C(=O)CN(CCN)C(=O)CN(CCc1ccccc1)C(=O)CN(CCc1ccccc1)C(=O)CN(CCN)C(=O)CN(CCc1ccccc1)C(=O)CN(CCc1ccccc1)C(=O)CN(CCN)C(=O)CN(CCc1ccccc1)C(=O)CN(CCc1ccccc1)C(=O)CNCCN` [Compound 21] gave a viability at 8 h, 500 ng/well ([1]; Relative Viability (%) 2% PEG) of 109% and a viability at 8 h, 500 ng/well ([1]; Relative Viability (%) No PEG) of 91.3%.

For `CCCCCCCCCCN(CC(N)=O)C(=O)CN(CCCCCCCCCC)C(=O)CN(CCCCCCCCCC)C(=O)CN(CCCCCCCCCC)C(=O)CN(CCc1ccccc1)C(=O)CN(CCc1ccccc1)C(=O)CN(CC1CCCN1)C(=O)CN(CCc1ccccc1)C(=O)CN(CCc1ccccc1)C(=O)CN(CC1CCCN1)C(=O)CN(CCc1ccccc1)C(=O)CN(CCc1ccccc1)C(=O)CNCC1CCCN1` (stereo not shown) [Compound 34], the viability at 8 h, 500 ng/well ([1]; Relative Viability (%) 2% PEG) was 106%, the viability at 8 h, 500 ng/well ([1]; Relative Viability (%) No PEG) was 67.6% and the viability at 8 h, 500 ng/well ([1]; viability) was < 80%.

`CCCCCCCCCCN(CC(N)=O)C(=O)CN(CCCCCCCCCC)C(=O)CN(CCCCCCCCCC)C(=O)CN(CCCCCCCCCC)C(=O)CN(CCCCCCCCCC)C(=O)CN(CCc1ccccc1)C(=O)CN(CCc1ccccc1)C(=O)CN(CCN)C(=O)CN(CCc1ccccc1)C(=O)CN(CCc1ccccc1)C(=O)CN(CCN)C(=O)CN(CCc1ccccc1)C(=O)CN(CCc1ccccc1)C(=O)CNCCN` [Compound 19] gave a viability at 8 h, 500 ng/well ([1]; Relative Viability (%) 2% PEG) of 94.8% and a viability at 8 h, 500 ng/well ([1]; Relative Viability (%) No PEG) of 87.1%.

`CCCCCCCCCCN(CC(N)=O)C(=O)CN(CCCCCCCCCC)C(=O)CN(CCCCCCCCCC)C(=O)CN(CCCCCCCCCC)C(=O)CN(CCc1ccccc1)C(=O)CN(CCc1ccccc1)C(=O)CN(CCN)C(=O)CN(CCc1ccccc1)C(=O)CN(CCc1ccccc1)C(=O)CN(CCN)C(=O)CN(CCc1ccccc1)C(=O)CN(CCc1ccccc1)C(=O)CNCCN` [Compound 8] showed a viability at 8 h, 500 ng/well ([1]; Relative Viability (%) 2% PEG) of 97.3% and a viability at 8 h, 500 ng/well ([1]; Relative Viability (%) No PEG) of 92%.

`CCCCCCCCCCN(CC(N)=O)C(=O)CN(CCCCCCCCCC)C(=O)CN(CCc1ccccc1)C(=O)CN(CCc1ccccc1)C(=O)CN(CCN)C(=O)CN(CCc1ccccc1)C(=O)CN(CCc1ccccc1)C(=O)CN(CCN)C(=O)CN(CCc1ccccc1)C(=O)CN(CCc1ccccc1)C(=O)CN(CCN)C(=O)CN(CCc1ccccc1)C(=O)CN(CCc1ccccc1)C(=O)CN(CCN)C(=O)CN(CCc1ccccc1)C(=O)CN(CCc1ccccc1)C(=O)CNCCN` [Compound 12] gave a viability at 8 h, 500 ng/well ([1]; Relative Viability (%) 2% PEG) of 104% and a viability at 8 h, 500 ng/well ([1]; Relative Viability (%) No PEG) of 98.5%.

With `CCCCCCCCCCN(CC(N)=O)C(=O)CN(CCCCCCCCCC)C(=O)CN(CCCCCCCCCC)C(=O)CN(CCCCCCCCCC)C(=O)CN(CCCCCCCCCC)C(=O)CN(CCCCCCCCCC)C(=O)CN(CCCCCCCCCC)C(=O)CN(CCc1ccccc1)C(=O)CN(CCc1ccccc1)C(=O)CN(CCN)C(=O)CN(CCc1ccccc1)C(=O)CN(CCc1ccccc1)C(=O)CN(CCN)C(=O)CN(CCc1ccccc1)C(=O)CN(CCc1ccccc1)C(=O)CNCCN` [Compound 23] the “% Encapsulation” value [2] was 3.9%, the “Luciferase Expression (RLU) 6 h” value (HeLa cells [3]; [5]) was 5.60E+01 RLU and the “Luciferase Expression (RLU) 24 h” value (HeLa cells [3]; [6]) was 9.47E+01 RLU. For the same compound, the “Luciferase Expression (RLU) 6 h” value (HeLa cells [3]; [7]) was 2.53E+01 RLU, the “Luciferase Expression (RLU) 24 h” value (HeLa cells [3]; [8]) was 2.13E+01 RLU and the “Observed Luciferase Expression (RLU) for Given Formulation Mass Ratio 2:1” value (HeLa cells [4]) was 5.47E+01 RLU. The “Observed Luciferase Expression (RLU) for Given Formulation Mass Ratio 3.5:1” value (HeLa cells [4]) was 1.42E+02 RLU, the “Observed Luciferase Expression (RLU) for Given Formulation Mass Ratio 5:1” value (HeLa cells [4]) was 2.07E+02 RLU and the “Observed Luciferase Expression (RLU) for Given Formulation Mass Ratio 7.5:1” value (HeLa cells [4]) was 1.55E+02 RLU. For the same compound, the viability at 8 h, 500 ng/well ([1]; Relative Viability (%) 2% PEG) was 118% and the viability at 8 h, 500 ng/well ([1]; Relative Viability (%) No PEG) was 108%.

With `CCCCCCCCCCN(CC(N)=O)C(=O)CN(CCCCCCCCCC)C(=O)CN(CCCCCCCCCC)C(=O)CN(CCCCCCCCCC)C(=O)CN(CCc1ccccc1)C(=O)CN(CCc1ccccc1)C(=O)CN(CCCN)C(=O)CN(CCc1ccccc1)C(=O)CN(CCc1ccccc1)C(=O)CN(CCCN)C(=O)CN(CCc1ccccc1)C(=O)CN(CCc1ccccc1)C(=O)CN(CCCN)C(=O)CN(CCc1ccccc1)C(=O)CN(CCc1ccccc1)C(=O)CNCCCN` [Compound 29] the viability at 8 h, 500 ng/well ([1]; Relative Viability (%) 2% PEG) was 94% and the viability at 8 h, 500 ng/well ([1]; Relative Viability (%) No PEG) was 85.9%.

For `CCCCCCCCCCN(CC(N)=O)C(=O)CN(CCCCCCCCCC)C(=O)CN(CCCCCCCCCC)C(=O)CN(CCCCCCCCCC)C(=O)CN(CCc1ccccc1)C(=O)CN(CCc1ccccc1)C(=O)CN(CC1CCCN1)C(=O)CN(CCc1ccccc1)C(=O)CN(CCc1ccccc1)C(=O)CN(CC1CCCN1)C(=O)CN(CCc1ccccc1)C(=O)CN(CCc1ccccc1)C(=O)CN(CC1CCCN1)C(=O)CN(CCc1ccccc1)C(=O)CN(CCc1ccccc1)C(=O)CNCC1CCCN1` (stereo not shown) [Compound 35], the viability at 8 h, 500 ng/well ([1]; Relative Viability (%) 2% PEG) was 105%, the viability at 8 h, 500 ng/well ([1]; Relative Viability (%) No PEG) was 74.8% and the viability at 8 h, 500 ng/well ([1]; viability) was < 80%.
